# Data as given in patent US20220280543A1, “DDX17 AND NLRC4 TARGETING FOR INFLAMMATORY DISEASES” (University of Virginia Patent Foundation, priority 2019, published 2022).
# Assays:
# [1] = tested on: NLRP3 inflammasome; assay: LPS+ATP induced NLRP3 inflammasome (caspase-1) after DDX17 knockdown; type: cell-based; conditions: LPS 125 ng/ml plus ATP, siRNA 24 hours before (FIG. 15)
# Protocol: (§1) FIG. 15. […] THP1 cell were transfected with siRNA target on DDX17 (siRNA sequence: CCAAUCUGAUGUAUCAGGA; SEQ ID NO: 91), and then 24 hours later, Flagellin (3 μg/ml) or LPS (125 ng/ml) plus ATP ([…]/30 minutes), DOTAP plus LPS was added to the THP1 cells. Supernatants were collected for Caspase-1 detection. […] Loading control show by actin. The caspase-1 precursor is referred as p45, and the active form of caspase-1 as p20. The adaptor protein for inflammasome assembly, apoptosis-associated speck-like protein containing a CARD (ASC) is labeled as ASC. The caspase-1p20) bands were indicated with black arrow.
# (§2) We finally examined whether DDX17 has a role in conventional NLRC4 activation by flagellin that requires NAIP and LPS+ATP dependent NLRP3 inflammasome activation. We treated […] with flagellin or LPS+ATP and transfected with siDDX17 and examined NLRC4 or NLRP3 dependent caspase-1 cleavage.
# [2] = tested on: CXCL10, IFNB, IL-1β, CASPASE-1 expression; assay: Alu RNA induced type I interferon response and inflammatory priming, qPCR, BMDM with DDX17 knockdown; type: cell-based, mouse; conditions: siRNA 24 hours before Alu RNA 100 pmol, qPCR (FIGS. 14A, 14B)
# Protocol: FIGS. 14A and 14B. […] Wild type BMDM cell were transfected with siRNA target on DDX17 (CCAAUCUGAUGUAUCAGGA; SEQ ID NO: 91), and then 24 hours later, BMDM cells were treated with Alu RNA (SEQ ID NO: 86; 100 pmol). Total RNA extracted for qPCR assay.
# We previously reported that Alu RNA (SEQ ID NO: 86) induces a type I interferon (IFN) response and inflammatory priming in BMDMs. Since DDX17 is essential for Alu RNA (SEQ ID NO: 86) induced inflammasome activation, we tested whether DDX17 knockdown could affect downstream events of the inflammasome cascade such as the type I IFN response.
# [3] = tested on: ASC oligomerization; assay: Alu RNA induced ASC oligomerization in THP1 cells after siRNA knockdown; type: cell-based, human; conditions: siRNA knockdown (FIG. 12A)
# From the text: (§3) FIGS. 12A and 12B. DDX17 knockdown blocks Alu RNA (SEQ ID NO: 86) induced ASC oligomerization and IL-1β release. FIG. 12A. siRNA mediated DDX17 knockdown (siRNA for DDX17: CCAAUCUGAUGUAUCAGGA; SEQ ID NO: 91), but not Ddx5 (siRNA for DDX5: GGAAAUUACAGUUAGAGGU; SEQ ID NO: 89) in THP1 cells, blocked Alu RNA (SEQ ID NO: 86) induced ASC oligomerization. The band of ASC oligomers were indicated by black arrow. FIG. 12B. siRNA mediated DDX17 knockdown, but not Ddx5 in THP1 cells, blocked Alu RNA (SEQ ID NO: 86) induced IL-1β release.
# (§4) To further confirm that DDX17 is the sensor for NLRC4, we investigated caspase-1 cleavage by immunoblotting and IL-1β secretion by ELISA in Alu RNA (SEQ ID NO: 86) or mock treated THP1 cells and DDX17 KO BMDMs respectively.
# [4] = tested on: NLRC4 inflammasome; assay: Flagellin induced classical NLRC4 inflammasome (caspase-1) after DDX17 knockdown; type: cell-based; conditions: Flagellin 3 μg/ml, siRNA 24 hours before (FIG. 15)
# Protocol: as §1, §2
# [5] = tested on: IL-1β; assay: Alu RNA induced IL-1β release in THP1 cells after siRNA knockdown, ELISA; type: cell-based, human; conditions: siRNA knockdown (FIG. 12B)
# From the text: as §3, §4
# [6] = tested on: caspase-1; assay: Alu RNA induced caspase-1 activation in THP1 cells after siRNA knockdown; type: cell-based, human; conditions: siRNA knockdown (FIGS. 11A, 11B)
# From the text: FIGS. 11A and 11B. Ddx17 involved in Alu RNA (SEQ ID NO: 86) induced inflammasome independent of its microprocessor function. DDX17 is a component of microprocessor complexes with DDX5 and Drosha. To test whether the microprocessor function of DDX17 is required for Alu RNA (SEQ ID NO: 86) induced inflammasome, we measured caspase-1 activation in THP cells with DDX5 or Drosha knockdown (siRNA for DDX5: GGAAAUUACAGUUAGAGGU; SEQ ID NO: 89); siRNA for Drosha: GACAAGUUGAUAGGAUAUA; SEQ ID NO: 90). FIG. 11A. siRNA mediated Ddx17 knockdown, but not Ddx5 in THP1 cells, blocked Alu RNA (SEQ ID NO: 86) induced caspase-1 activation. […] The caspase-1 (p20) bands were indicated with black arrows.
# We next examined whether DDX5 or DDX17 was the sensor for Alu RNA (SEQ ID NO: 86) induced NLRC4 inflammasome activation. Due to the high degree of similarity in the sequences of DDX5 and DDX17, we designed 3 siRNAs targeting DDX5 alone, DDX17 alone, or both DDX5 and DDX17, and confirmed their target efficiency in THP1 cells (FIG. 11A). […] Therefore, we tested whether Drosha is also involved in SINE RNA-DDX17-NLRC4 axis. […] These observations implicate that DDX17 mediated SINE RNA induced NLRC4 inflammasome is independent of microprocessor function.
# [7] = tested on: RPE degeneration; assay: Alu RNA induced RPE degeneration in mice, fundus images and ZO-1 staining; type: in vivo; conditions: mice, subretinal Alu RNA; fundus and ZO-1 (FIGS. 25B, 26)
# Protocol: FIGS. 25A and 25B. NLRC4 knockdown blocks Alu RNA (SEQ ID NO: 86) induced ASC oligomerization and RPE degeneration. Human RPE cell treated with siRNA target on NLRC4 (SMARTPOOL siRNA for NLRC4: CAACUGGGCUCCUCUGUAA; SEQ ID NO: 93) and NAIP (SMARTPOOL siRNA for NAIP: GUAAAGAGCUAUAUGGAUA; SEQ ID NO: 94), 24 hours later, treated with Alu RNA (SEQ ID NO: 86 at 100 pmol) FIG. 25A. […] The band of ASC oligomers was indicated by black arrow. […] The hyperdense areas due to the RPE degeneration in fundus images and ZO-1 disorganizations in RPE sheet are indicated by white arrows.
# FIG. 26. […] Wilde type of C57/B6 mice were intravitreally injected with siRNA target on Ddx17 (siRNA for Ddx17: GGCUAGAUGUGGAAGAUGU; SEQ ID NO: 95), and two days later, Nlrc4^−/−, Naip1-6^−/−, mice and Ddx17 knockdown mice were subretinally injected with Alu RNA (SEQ ID NO: 86). […] The hyperdense areas due to the RPE degeneration in fundus images and ZO-1 disorganizations in RPE sheet are indicated by white arrows.
# Next, we asked whether Alu RNA (SEQ ID NO: 86) also triggered NLRC4 inflammasome activation in human RPE cells. We performed immunofluorescence staining experiments to examine whether Alu RNA (SEQ ID NO: 86) can induce NLRC4 speck formation in human RPE cells. We noticed punctate structures resembling specks of NLRC4 in human RPE cells in response to Alu RNA (SEQ ID NO: 86) treatment (FIG. 24A). […] We further investigated downstream events of NLRC4 inflammasome activation by studying NLRC4-induced ASC oligomerization, a critical step involved in caspase-1 cleavage. NLRC4 siRNA, when co-administered with Alu RNA (SEQ ID NO: 86), blocked ASC oligomerization in vitro (FIG. 25A) and RPE degeneration in vivo (FIG. 25B).
# We delivered Alu RNA (SEQ ID NO: 86) or Alu RNA (SEQ ID NO: 86)+siDDX17 subretinally in WT or NLRC4 KO or NAIP1-6 KO mice and examined for RPE degeneration using fundus photos and ZO-1 staining as described previously.
substance,measurement,setting,value
siDDX17: siRNA for DDX17: CCAAUCUGAUGUAUCAGGA; SEQ ID NO: 91 (chemistry not fully specified),"LPS+ATP induced NLRP3 inflammasome, caspase-1 levels",[1],does not affect
same,"expression of caspase-1, CXCL10, IFNβ, IL-18 and IL-1β genes after Alu RNA",[2],did not affect
same,"Alu RNA induced ASC oligomerization, THP1 cells",[3],prevented
same,"flagellin induced NLRC4 inflammasome, caspase-1 levels",[4],does not affect
same,"Alu RNA induced IL-1β release, THP1 cells, ELISA",[5],significantly reduced
same,caspase-1 cleavage in Alu RNA treated THP1 cells,[6],inhibited
same,caspase-1 cleavage in Alu RNA treated THP1 cells,[6]; listed as DDX17 siRNA,reduce
same,"Alu RNA induced RPE degeneration in vivo, effect of siRNA",[7],rescued from this phenotype
